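These data come from cells grown in 96-well plates and exposed to compound for 48 hours at five concentrations. GI50 marks 50% less growth.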 Calls of active or inactive are those of the source. Rule as the data show it: active = GI50 up to about 1.1 µM and inactive = higher.
Key:
Assay in all cases: NCI-60 cell line screen, 48 h
HCC 2998 = test system: HCC 2998
RPMI-8226 = test system: RPMI-8226
OVCAR-4 = test system: OVCAR-4
OVCAR-5 = test system: OVCAR-5
A498 = test system: A498
UACC-62 = test system: UACC-62
BT-549 = test system: BT-549
SF-268 = test system: SF-268
MDA-MB-231 = test system: MDA-MB-231
NCI-H460 = test system: NCI-H460
NCI/ADR-RES = test system: NCI/ADR-RES
COLO 205 = test system: COLO 205
SNB-19 = test system: SNB-19
OVCAR-8 = test system: OVCAR-8
SN12C = test system: SN12C
SF-539 = test system: SF-539
HOP-92 = test system: HOP-92
CCRF-CEM = test system: CCRF-CEM
SK-MEL-2 = test system: SK-MEL-2
ACHN = test system: ACHN
KM12 = test system: KM12
EKVX = test system: EKVX
HCT-116 = test system: HCT-116
SK-MEL-5 = test system: SK-MEL-5
786-0 = test system: 786-0
PC-3 = test system: PC-3
SK-OV-3 = test system: SK-OV-3
A549 = test system: A549
RXF 393 = test system: RXF 393
TK-10 = test system: TK-10
HOP-62 = test system: HOP-62
CAKI-1 = test system: CAKI-1
DU-145 = test system: DU-145
MDA-N = test system: MDA-N
SNB-75 = test system: SNB-75
K562 = test system: K562
HL-60 = test system: HL-60
MOLT-4 = test system: MOLT-4
M14 = test system: M14
OVCAR-3 = test system: OVCAR-3
MCF7 = test system: MCF7
T47D = test system: T47D
HT-29 = test system: HT-29
UACC-257 = test system: UACC-257
HCT-15 = test system: HCT-15
SK-MEL-28 = test system: SK-MEL-28
LOX IMVI = test system: LOX IMVI
U-251 = test system: U-251
IGROV-1 = test system: IGROV-1
MDA-MB-435 = test system: MDA-MB-435
SF-295 = test system: SF-295
SR = test system: SR
SW-620 = test system: SW-620
UO-31 = test system: UO-31
NCI-H23 = test system: NCI-H23
NCI-H226 = test system: NCI-H226
Malme-3M = test system: Malme-3M
Hs-578T = test system: Hs-578T
NCI-H522 = test system: NCI-H522

Measured: GI50

O=C1CC(=O)N(C2CCCCC2)C(=O)N1c1ccccc1S(=O)(=O)Oc1ccccc1
inactive: HCC 2998 > 100 µM | RPMI-8226 26.5 µM | OVCAR-4 > 100 µM | OVCAR-5 > 100 µM | A498 > 100 µM | UACC-62 > 100 µM | BT-549 49.5 µM | SF-268 90.6 µM | MDA-MB-231 > 100 µM | NCI-H460 > 100 µM | NCI/ADR-RES > 100 µM | COLO 205 > 100 µM | SNB-19 > 100 µM | OVCAR-8 > 100 µM | SN12C > 100 µM | SF-539 > 100 µM | HOP-92 12.9 µM | CCRF-CEM 14.9 µM | SK-MEL-2 > 100 µM | ACHN 19.1 µM | KM12 > 100 µM | EKVX > 100 µM | HCT-116 > 100 µM | SK-MEL-5 > 100 µM | 786-0 18.1 µM | PC-3 > 100 µM | SK-OV-3 > 100 µM | A549 > 100 µM | RXF 393 > 100 µM | TK-10 > 100 µM | HOP-62 33 µM | CAKI-1 > 100 µM | DU-145 > 100 µM | MDA-N > 100 µM | SNB-75 > 100 µM | K562 26.9 µM | HL-60 > 100 µM | MOLT-4 19.2 µM | M14 > 100 µM | OVCAR-3 > 100 µM | MCF7 > 100 µM | T47D 85.1 µM | HT-29 > 100 µM | UACC-257 > 100 µM | SK-MEL-28 > 100 µM | LOX IMVI 2.59 µM | U-251 > 100 µM | IGROV-1 14.9 µM | MDA-MB-435 > 100 µM | SF-295 > 100 µM | SR > 100 µM | SW-620 > 100 µM | UO-31 18.1 µM
> 100 µM: HCT-15

O=C(O)c1ccc2[nH]c(=O)oc2c1
> 100 µM: HCT-15
inactive: RPMI-8226 > 100 µM | OVCAR-5 > 100 µM | A498 > 100 µM | UACC-62 > 100 µM | BT-549 > 100 µM | SF-268 > 100 µM | MDA-MB-231 > 100 µM | NCI-H460 > 100 µM | NCI-H23 > 100 µM | NCI/ADR-RES > 100 µM | COLO 205 > 100 µM | SNB-19 > 100 µM | OVCAR-8 > 100 µM | SN12C > 100 µM | SF-539 > 100 µM | CCRF-CEM > 100 µM | SK-MEL-2 > 100 µM | NCI-H226 > 100 µM | ACHN > 100 µM | KM12 > 100 µM | EKVX > 100 µM | HCT-116 > 100 µM | Malme-3M > 100 µM | 786-0 > 100 µM | PC-3 > 100 µM | SK-OV-3 > 100 µM | RXF 393 > 100 µM | TK-10 > 100 µM | HOP-62 > 100 µM | CAKI-1 > 100 µM | DU-145 > 100 µM | MDA-N > 100 µM | SNB-75 > 100 µM | K562 > 100 µM | HL-60 > 100 µM | MOLT-4 > 100 µM | M14 > 100 µM | OVCAR-3 > 100 µM | MCF7 > 100 µM | HT-29 > 100 µM | UACC-257 > 100 µM | Hs-578T > 100 µM | SK-MEL-28 > 100 µM | LOX IMVI > 100 µM | U-251 > 100 µM | IGROV-1 > 100 µM | MDA-MB-435 > 100 µM | SF-295 > 100 µM | SR > 100 µM | SW-620 > 100 µM

CCOC(=O)c1sc2nc(SC)nc(Nc3ccc4c(c3)OCO4)c2c1N
0.706 µM: HCT-15
inactive: HCC 2998 > 100 µM | RPMI-8226 53.8 µM | OVCAR-4 37.7 µM | OVCAR-5 > 100 µM | A498 28.4 µM | UACC-62 25.1 µM | BT-549 33.7 µM | MDA-MB-231 26 µM | NCI-H460 > 100 µM | NCI-H23 53 µM | NCI/ADR-RES 64.6 µM | COLO 205 > 100 µM | SNB-19 54.7 µM | SN12C 59 µM | SF-539 32.9 µM | HOP-92 17.4 µM | CCRF-CEM 50.7 µM | SK-MEL-2 68.4 µM | NCI-H226 71.3 µM | ACHN 19.9 µM | KM12 > 100 µM | EKVX 31.9 µM | HCT-116 > 100 µM | Malme-3M 29.6 µM | SK-MEL-5 44.1 µM | 786-0 21.6 µM | PC-3 37.8 µM | A549 68.9 µM | RXF 393 10.9 µM | TK-10 30.9 µM | HOP-62 28.8 µM | CAKI-1 > 100 µM | DU-145 35.8 µM | MDA-N > 100 µM | K562 81.1 µM | HL-60 > 100 µM | MOLT-4 > 100 µM | M14 41.9 µM | OVCAR-3 37.4 µM | MCF7 30.6 µM | T47D 39.5 µM | UACC-257 > 100 µM | SK-MEL-28 1.91 µM | LOX IMVI > 100 µM | U-251 32.9 µM | IGROV-1 > 100 µM | MDA-MB-435 > 100 µM | SF-295 16 µM | SR > 100 µM | SW-620 4.34 µM | UO-31 71.3 µM | NCI-H522 46.7 µM

Nc1ccc(/N=N/c2ccccc2)cc1
inactive: HCC 2998 61.5 µM | OVCAR-4 > 100 µM | OVCAR-5 > 100 µM | A498 46.8 µM | UACC-62 27.4 µM | BT-549 65.6 µM | MDA-MB-231 32.7 µM | NCI-H460 29.1 µM | NCI-H23 61.5 µM | NCI/ADR-RES 34.8 µM | COLO 205 46.1 µM | SNB-19 84.1 µM | OVCAR-8 28 µM | SN12C 69.5 µM | SF-539 35.2 µM | HOP-92 30.6 µM | CCRF-CEM 6.41 µM | SK-MEL-2 22.6 µM | NCI-H226 25.4 µM | ACHN 30.3 µM | KM12 23.8 µM | EKVX 28.2 µM | HCT-116 54.6 µM | Malme-3M 75.9 µM | SK-MEL-5 53.5 µM | 786-0 64.9 µM | PC-3 56.8 µM | SK-OV-3 > 100 µM | A549 32.6 µM | RXF 393 20.1 µM | TK-10 47.9 µM | HOP-62 42 µM | CAKI-1 93.1 µM | MDA-N 60.3 µM | SNB-75 10.3 µM | K562 35.8 µM | HL-60 13.4 µM | MOLT-4 11.7 µM | M14 44.4 µM | OVCAR-3 18.8 µM | MCF7 30.5 µM | HT-29 28.6 µM | UACC-257 > 100 µM | Hs-578T > 100 µM | SK-MEL-28 > 100 µM | LOX IMVI 26.7 µM | U-251 46.5 µM | IGROV-1 29.4 µM | MDA-MB-435 56.1 µM | SF-295 22.2 µM | SR 19.3 µM | SW-620 51.8 µM | UO-31 13.2 µM
41.2 µM: HCT-15

From ChEMBL document CHEMBL1201862, “PubChem BioAssay data set” (2004)
